For one experiment, the target named is CaM. Particulars: read-out: Kd of CDZ as CaM inhibitor; cited from earlier work.
The subject of a further experiment is Cx50 gap junctions. It counts as cell-based, mouse. The settings on record: 1 μM peptide in both whole-cell patch pipettes; 1 μM ionomycin + 1.8 mM [Ca2+]o; Cx50-N2a cell pairs.

In the case of `Clc1ccc(C(c2ccc(Cl)cc2)n2cc[n+](CC(OCc3ccc(Cl)cc3Cl)c3ccc(Cl)cc3Cl)c2)cc1` (centres unmarked) [CDZ, calmidazolium], the Kd at CaM was ~1000 nM.

As to FKLYKCISFGGTEITTRSHVLTKKRL [SCx50p], in the experiment on Cx50 gap junctions, the “Share of the Ca2+/CaM-dependent decline in Cx50 Gj prevented” value is 20%.

The values are drawn from paper PMC3351833 (Biochemical Journal, 2011).
